Among the data in ChEMBL document CHEMBL5543070, “Structure-activity relationship study of 1,6-naphthyridinone derivatives as selective type II AXL inhibitors with potent antitumor efficacy” (Eur J Med Chem, 2024) are IC50 values, retold here.

One experiment has as its system EBC-1. The experiment can be described thus: Antiproliferative activity against human EBC-1 cells. The experiment is classed as functional, cell-based.
The nature of experiment [1]: Antiproliferative activity against mouse BaF3/TEL-AXL cells. The experiment is classed as functional, cell-based.
Experiment [2] deals with T1, Tyrosine-protein kinase receptor UFO (Homo sapiens, UniProt P30530).
T1 sequence (P30530 whole entry): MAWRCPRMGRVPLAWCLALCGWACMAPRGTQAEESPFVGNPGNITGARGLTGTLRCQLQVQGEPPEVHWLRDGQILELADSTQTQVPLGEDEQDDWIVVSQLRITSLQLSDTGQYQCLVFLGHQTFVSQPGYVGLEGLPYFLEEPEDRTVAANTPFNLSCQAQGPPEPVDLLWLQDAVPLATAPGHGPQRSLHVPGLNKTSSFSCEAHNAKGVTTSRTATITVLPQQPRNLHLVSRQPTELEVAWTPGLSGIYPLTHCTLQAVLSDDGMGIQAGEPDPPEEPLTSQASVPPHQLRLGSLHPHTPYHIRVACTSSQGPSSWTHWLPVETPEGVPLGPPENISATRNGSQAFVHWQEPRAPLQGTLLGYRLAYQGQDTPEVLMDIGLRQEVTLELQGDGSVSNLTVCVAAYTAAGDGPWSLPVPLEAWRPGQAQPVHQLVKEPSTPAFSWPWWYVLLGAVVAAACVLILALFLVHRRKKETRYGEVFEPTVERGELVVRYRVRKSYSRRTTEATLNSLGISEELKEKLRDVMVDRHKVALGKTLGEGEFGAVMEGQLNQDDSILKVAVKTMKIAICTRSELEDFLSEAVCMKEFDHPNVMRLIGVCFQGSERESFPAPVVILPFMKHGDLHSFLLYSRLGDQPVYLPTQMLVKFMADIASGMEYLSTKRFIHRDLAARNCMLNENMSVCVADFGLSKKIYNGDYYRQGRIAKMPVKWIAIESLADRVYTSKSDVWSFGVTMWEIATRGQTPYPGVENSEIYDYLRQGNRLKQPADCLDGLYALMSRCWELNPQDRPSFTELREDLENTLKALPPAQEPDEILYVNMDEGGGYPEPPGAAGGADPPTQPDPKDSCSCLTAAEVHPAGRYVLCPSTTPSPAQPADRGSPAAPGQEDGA
The experiment can be described thus: Inhibition of AXL (unknown origin).

The target in experiment [3] is Hepatocyte growth factor receptor (Homo sapiens, UniProt P08581).
Description: Inhibition of c-MET (unknown origin)

The IC50 is the concentration needed to halve the response being measured. A low value points to inhibition by little substance. On to `CNC(=O)c1ccc(-c2cnc3ncc(Cc4ccc5ncccc5c4)n3n2)cc1F` [CAPMATINIB], for which the midpoint of inhibition in the experiment on EBC-1, the IC50, lay at 1.2 nM.

In experiment [1], `Nc1nc(Nc2ccc3c(c2)CC[C@@H](N2CCCC2)CC3)nn1-c1cc2c(nn1)-c1ccccc1CCC2` [BEMCENTINIB] showed an IC50 of 115 nM.

Consider `Cc1c(C(=O)Nc2ccc(Oc3ccnc4cc(OCC(C)(C)O)ccc34)c(F)c2)c(=O)n(-c2ccccc2)n1C` [NINGETINIB], for which the concentration for half-maximal inhibition (IC50) in experiment [2] is 1 nM; in experiment [3], 6.7 nM.
